The text below walks through data of patent US20140228318A1, “Curcumin formulations and methods for making such formulations” (Sanford Research/USD, priority 2010, published 2014).

Common to all, as to type: cell-based
Experiment [1] has as its system C4-2 prostate cancer cells. The experiment can be described thus: In vitro cytotoxicity / cell proliferation (MTS assay). The settings on record: 48 h, C4-2, 2 days, read-out: IC50 (concentration of drug required to kill 50% of cells). How it is done: (§1) To examine the anti-cancer activity of the CD-CUR inclusion complex (CD-30), cell proliferation assays were performed using C4-2 and DU145 prostate cancer cell lines. Prostate cancer cells (5000 cells/well in 100 μL media) were seeded in 96-well plates and allowed to attach overnight. […] Media containing equivalent amounts of CD in PBS or DMSO was used as the control. […] The reagent (25 μL/well) was added to each well and plates were incubated for 3 hrs at 37° C. The color intensity was measured at 492 nm using a microplate reader (BioMate 3 UV-Vis spectrophotometer, Thermo Electron Corporation, Hudson, N.H.). […] Just before adding MTS reagents, representative phase contrast microscope images of cells were taken using an Olympus BX 41 microscope (Olympus, Center Valley, Pa., USA).

The subject of experiment [2] is DU145 prostate cancer cells. The experiment is described as above. The note with it: Homo sapiens, DU-145, 48 h, DU145, 2 days, read-out: IC50 (concentration of drug required to kill 50% of cells). The procedure:
as §1

In experiment [3] the test system is C4-2 prostate cancer cells. The experiment can be described thus: Colony formation (clonogenic) assay. The settings on record: C4-2, 2 μM, 10 day period. The procedure: (§2) Prostate cancer cells (1000) were seeded in 2 mL media in 6-well plates and allowed 2-3 days to attach and initiate the colony formations. […] The plates were then washed twice with PBS, fixed in chilled methanol, stained with hematoxylin (Fisher Scientific, Fair Lawn, N.J., USA), washed with water and air dried. The number of colonies was counted by a MultiImage™ Cabinet (Alpha Innotech Corporation, San Leandro, Calif., USA) using AlphaEase Fc software. The percent of colonies was calculated using the number of colonies formed in treatment divided by number of colonies formed in DMSO or CD in PBS controls.

Experiment [4] relates to DU145 prostate cancer cells. Description: Colony formation (clonogenic) assay. The note with it: DU145, 2 μM, 10 day period. The procedure:
as §2

As to `COc1cc(/C=C/C(=O)CC(=O)/C=C/c2ccc(O)c(OC)c2)ccc1O` [CUR, bis(4-hydroxy-3-methoxyphenyl)-1,6-diene-3,5-dione], the values for the IC50 in experiment [1] and in experiment [2] were 19.6 µM and 18.4 µM, respectively. The “colonies, percent of DMSO or CD control” value in experiment [3] was found to be 96%; in experiment [4], 74%.
